pIC50, pKi: −log10 of the molar value. Read-outs that look alike come from different tables or passages of the source. Bounds are passed on as bounds.

Consider 19 compounds from US10716770B2, “Nicotinic receptor non-competitive antagonists” (Catalyst Biosciences, Inc., priority 2010, dated 2020).

Assay [1] deals with T1, human α4β2 (Homo sapiens, UniProt P17787+P43681).
T1 construct: host or cells: SH-EP1
Briefly: Calcium flux functional assay, inhibition of nicotine response in SH-EP1-human α4β2 cells. Format: cell-based. As to conditions: nicotine 1 μM. Here is the method: (§1) SH-EP1-human α4β2 (Eaton et al., 2003), SH-EP1-human α4β4 (Gentry et al., 2003) and SH-EP1-α6β3β4α5 (Grinevich at al., 2005) cell lines were obtained from Dr. Ron Lukas (Barrow Neurological Institute). The SH-EP1 cell lines, PC12, SH-SY5Y and TE671/RD cells were maintained in proliferative growth phase in Dulbecco's modified Eagle's medium (Invitrogen, Carlsbad, Calif.) with 10% horse serum (Invitrogen), 5% fetal bovine serum (HyClone, Logan Utah), 1 mM sodium pyruvate, 4 mM L-glutamine. For maintenance of stable transfectants, the α4β2 and α4β4 cell media was supplemented with 0.25 mg/mL zeocin and 0.13 mg/mL hygromycin B. Selection was maintained for the α6β3β4α5 cells with 0.25 mg/mL of zeocin, 0.13 mg/mL of hygromycin B, 0.4 mg/mL of geneticin, and 0.2 mg/mL of blasticidin.
(§2) Twenty-four to forty-eight hours prior to each experiment, cells were plated in 96 well black-walled, clear bottom plates (Corning, Corning, N.Y.) at 60-100,000 cells/well. On the day of the experiment, growth medium was gently removed, 200 μL 1×FLIPR Calcium 4 Assay reagent (Molecular Devices, Sunnyvale, Calif.) in assay buffer (20 mM HEPES, 7 mM TRIS base, 4 mM CaCl2, 5 mM D-glucose, 0.8 mM MgSO4, 5 mM KCl, 0.8 mM MgCl2, 120 mM N-methyl D-glucamine, 20 mM NaCl, pH 7.4 for SH-EP1-human α4β2 cells or 10 mM HEPES, 2.5 mM CaCl2, 5.6 mM D-glucose, 0.8 mM MgSO4, 5.3 mM KCl, 138 mM NaCl, pH 7.4 with TRIS-base for all other cell lines) was added to each well and plates were incubated at 37° C. for 1 hour (29° C. for the 29° C.-treated SH-EP1-human α4β2 cells). For inhibition studies, competitor compound (10 pM-10 μM) was added at the time of dye addition. The plates were removed from the incubator and allowed to equilibrate to room temperature. Plates were transferred to a FLIPR Tetra fluorometric imaging plate reader (Molecular Devices) for addition of compound and monitoring of fluorescence (excitation 485 nm, emission 525 nm). The amount of calcium flux was compared to both a positive (nicotine) and negative control (buffer alone). The positive control was defined as 100% response and the results of the test compounds were expressed as a percentage of the positive control. For inhibition studies, the agonist nicotine was used at concentrations of 1 μM for SH-EP1-human α4β2 and SH-EP1-human α4β4 cells, 10 μM for PC12 and SH-SY5Y cells, and 100 μM for TE671/RD cells.
A general note: Calcium assays in cells follow changes in intracellular calcium, usually with a dye or a luminescent sensor.

Assay [2] concerns the target T1, human α4β2. Briefly: Competition binding to human α4β2 nicotinic receptors in membrane preparations ([3H]-nicotine). As to conditions: [3H]-nicotine competition, membranes.
The target in another assay is T2, Human Ganglion (Homo sapiens, UniProt P30926+P32297).
T2 construct: Human Ganglion Ca Flux IC50; Human Ganglion Ca Flux Imax
Briefly: Calcium flux functional assay, inhibition of nicotine response at human ganglionic receptor subtype. It counts as cell-based. As to conditions: read-out: Human Ganglion Ca Flux Imax. Here is the method: as §1, §2

The mark [3] stands for this setting: 29C/HS (29° C.-treated SH-EP1-human α4β2 cells), read-out: Human α4β2 Ca Flux IC50 [29C/HS].
The mark [4] stands for this setting: 29C/HS (29° C.-treated SH-EP1-human α4β2 cells), read-out: Human α4β2 Ca Flux Imax [29C/HS].
The mark [5] stands for this setting: 37C/LS, read-out: Human α4β2 Ca Flux IC50 [37C/LS].
Where [6] appears, read: 37C/LS, read-out: Human α4β2 Ca Flux Imax [37C/LS].
The mark [7] stands for this setting: 29C/HS (29° C.-treated SH-EP1-human α4β2 cells).

Broadly, the pKi is −log10 of the Ki, conventionally taken in molar units. Regarding `CNC1C2CCC(C2)C12CCC2` (stereo not drawn), the pIC50 on human α4β2 [1] (setting [3]) was 6.00; at human α4β2 [1] (setting [5]) it was 6.30. In addition, the Emax stood at 99% at human α4β2 [1] (setting [4]), 97% at human α4β2 [1] (setting [6]) and 97% on Human Ganglion. Further, the pKi at human α4β2 [2] (Human α4β2 Ki) is below 5.00.

As for `C1CCN(C2C3CCC(C3)C23CCC3)C1` (stereo not drawn), the pIC50 on human α4β2 [1] (setting [3]) is 5.85; on human α4β2 [1] (Human α4β2 Ca Flux IC50 [37C/LS], 37C/LS), 7.23. Besides, the Emax at human α4β2 [1] (setting [4]) came to 90%; at human α4β2 [1] (setting [6]), 96%; on Human Ganglion it was 79%. The pKi at human α4β2 [2] (read-out: Human α4β2 Ki) is 5.42.

`C1CN(C2C3CCC(C3)C23CCC3)C1` (stereo not drawn): the pIC50 on human α4β2 [1] (setting [3]) was 5.85; on human α4β2 [1] (setting [5]) it was 6.13. Also, the Emax was found to be 96% at human α4β2 [1] (setting [4]), 98% on human α4β2 [1] (setting [6]) and 89% at Human Ganglion.

With `CN(C)C1C2CCC(C2)C12CCC2` (stereo not drawn), the values for the pIC50 on human α4β2 [1] (setting [3]) and on human α4β2 [1] (setting [5]) were 5.74 and 6.21, respectively. The Emax on human α4β2 [1] (setting [4]), at human α4β2 [1] (setting [6]) and at Human Ganglion was 98% in each case. Besides, at human α4β2 [2] (read-out: Human α4β2 Ki), the pKi is 5.59.

Turning to `CNC1C2CCC(C2)C12CC2` (stereo not drawn), the results for the pIC50 at human α4β2 [1] (setting [3]) and on human α4β2 [1] (setting [5]) were 5.68 and 6.24, respectively. The Emax is 97% on human α4β2 [1] (setting [4]), 93% on human α4β2 [1] (setting [6]) and 93% on Human Ganglion. For the same compound, the negative logarithm of the Ki (pKi) at human α4β2 [2] (Human α4β2 Ki) was 6.27.

Regarding `CNC1(C)C2CCC(C2)C12CCCC2` (stereo not drawn), the pIC50 at human α4β2 [1] (setting [3]) is 5.96; at human α4β2 [1] (setting [5]), 6.92. For the same compound, the Emax at human α4β2 [1] (setting [4]) turned out to be 99%; on human α4β2 [1] (setting [6]), 100%; on Human Ganglion it was 96%. In addition, at human α4β2 [2] (read-out: Human α4β2 Ki), the pKi was below 5.00.

For the compound `CNC1(C)C2CCC(C2)C12CC2` (stereo not drawn), the results for the pIC50 on human α4β2 [1] (setting [3]) and on human α4β2 [1] (setting [5]) were 6.42 and 6.92, respectively. Moreover, the figures for the Emax at human α4β2 [1] (setting [4]), at human α4β2 [1] (setting [6]) and on Human Ganglion were 97%, 93% and 98%, respectively. The pKi on human α4β2 [2] (read-out: Human α4β2 Ki) is below 5.00.

`CNC1(C)C2CCC(CC2)C12CCCC2` (stereo not drawn): the pIC50 at human α4β2 [1] (setting [5]) was 6.40. Moreover, the Emax is 95% at human α4β2 [1] (setting [6]) and 92% on Human Ganglion. Besides, the negative-log Ki (pKi) on human α4β2 [2] (read-out: Human α4β2 Ki) is 6.52.

`CN[C@@]1(C)[C@@H]2CC[C@@H](C2)C12CCC2` (racemic): the values for the Emax on human α4β2 [1] (setting [4]), on human α4β2 [1] (setting [6]) and on Human Ganglion were 98%, 95% and 93%, respectively. On human α4β2 [2] (read-out: Human α4β2 Ki), the pKi was 5.06.

As for `CN[C@@]1(C)[C@@H]2CC[C@@H](C2)C12CCC2` (single isomer, unassigned) [drawing 29], on human α4β2 [1] (setting [7]), the “Human α4β2 Ca Flux Imax [29C/HS]” value was found to be 98 % inh. The “Human α4β2 Ca Flux Imax [37C/LS]” value on human α4β2 [1] (37C/LS) amounted to 96 % inh. Moreover, the negative-log Ki (pKi) on human α4β2 [2] (read-out: Human α4β2 Ki) is below 5.00.

As for `CN[C@@]1(C)[C@@H]2CC[C@@H](C2)C12CCC2` (single isomer, unassigned) [drawing 30], the “Human α4β2 Ca Flux Imax [29C/HS]” value on human α4β2 [1] (setting [7]) is 98 % inh. The “Human α4β2 Ca Flux Imax [37C/LS]” value at human α4β2 [1] (37C/LS) came to 94 % inh. In addition, at human α4β2 [2] (read-out: Human α4β2 Ki), the negative logarithm of the Ki (pKi) was below 5.00.

In the case of `CNC1C2(CCC2)[C@H]2CC[C@]1(C)C2(C)C` (stereo partly drawn) [drawing 31], the pIC50 is 5.89 at human α4β2 [1] (setting [3]) and 6.30 on human α4β2 [1] (setting [5]). In addition, the Emax came to 99% at human α4β2 [1] (setting [4]), 96% on human α4β2 [1] (setting [6]) and 97% at Human Ganglion. Moreover, at human α4β2 [2] (read-out: Human α4β2 Ki), the negative-log Ki (pKi) was below 5.00.

Regarding `CNC1C2(CCC2)[C@H]2CC[C@]1(C)C2(C)C` (stereo partly drawn) [drawing 32], the “Human α4β2 Ca Flux Imax [29C/HS]” value on human α4β2 [1] (setting [7]) turned out to be 98 % inh. The pIC50 on human α4β2 [1] (setting [3]) was 6.15; at human α4β2 [1] (setting [5]), 6.37. The “Human α4β2 Ca Flux Imax [37C/LS]” value on human α4β2 [1] (37C/LS) is listed as 96 % inh. For the same compound, the negative logarithm of the Ki (pKi) on human α4β2 [2] (read-out: Human α4β2 Ki) was 5.25.

Turning to `CNC1C2(CCC2)[C@@H]2CC[C@@]1(C)C2(C)C` (stereo partly drawn) [drawing 33], the pIC50 at human α4β2 [1] (setting [3]) was 6.00; on human α4β2 [1] (setting [5]) it was 6.22. The Emax on human α4β2 [1] (setting [4]) turned out to be 97%; on human α4β2 [1] (setting [6]) it was 95%; at Human Ganglion, 95%. Besides, the pKi on human α4β2 [2] (read-out: Human α4β2 Ki) was below 5.00.

Consider `CNC1C2(CCC2)[C@@H]2CC[C@@]1(C)C2(C)C` (stereo partly drawn) [drawing 34], for which the “Human α4β2 Ca Flux Imax [29C/HS]” value on human α4β2 [1] (setting [7]) is given as 97 % inh. For the same compound, the pIC50 is 6.51 at human α4β2 [1] (setting [3]) and 6.57 at human α4β2 [1] (setting [5]). Besides, at human α4β2 [1] (37C/LS), the “Human α4β2 Ca Flux Imax [37C/LS]” value turned out to be 93 % inh. Moreover, on human α4β2 [2] (read-out: Human α4β2 Ki), the pKi was below 5.00.

With `CN(C)C1C2(CCC2)[C@H]2CC[C@]1(C)C2(C)C` (stereo partly drawn) [drawing 35], the pIC50 was 6.27 at human α4β2 [1] (setting [3]) and 6.28 on human α4β2 [1] (setting [5]). Moreover, the results for the Emax on human α4β2 [1] (setting [4]), on human α4β2 [1] (setting [6]) and on Human Ganglion were 96%, 97% and 98%, respectively. In addition, at human α4β2 [2] (read-out: Human α4β2 Ki), the negative logarithm of the Ki (pKi) was below 5.00.

As to `CN(C)C1C2(CCC2)[C@H]2CC[C@]1(C)C2(C)C` (stereo partly drawn) [drawing 36], the “Human α4β2 Ca Flux Imax [29C/HS]” value at human α4β2 [1] (setting [7]) is recorded as 96 % inh. For the same compound, the figures for the pIC50 on human α4β2 [1] (setting [3]) and at human α4β2 [1] (setting [5]) were 6.85 and 6.46, respectively. On human α4β2 [1] (37C/LS), the “Human α4β2 Ca Flux Imax [37C/LS]” value worked out at 95 % inh. The pKi on human α4β2 [2] (read-out: Human α4β2 Ki) was below 5.00.

Take `CN(C)C1C2(CCC2)[C@@H]2CC[C@@]1(C)C2(C)C` (stereo partly drawn) [drawing 37]: the pIC50 was 5.96 on human α4β2 [1] (setting [3]) and 6.55 on human α4β2 [1] (setting [5]). The Emax at human α4β2 [1] (setting [4]) amounted to 96%; at human α4β2 [1] (setting [6]) it was 95%; at Human Ganglion it was 95%. Besides, the pKi on human α4β2 [2] (read-out: Human α4β2 Ki) was 5.49.

For the compound `CN(C)C1C2(CCC2)[C@@H]2CC[C@@]1(C)C2(C)C` (stereo partly drawn) [drawing 38], the “Human α4β2 Ca Flux Imax [29C/HS]” value on human α4β2 [1] (setting [7]) was determined as 95 % inh. The pIC50 on human α4β2 [1] (setting [3]) was 6.13; at human α4β2 [1] (setting [5]), 6.42. For the same compound, the “Human α4β2 Ca Flux Imax [37C/LS]” value at human α4β2 [1] (37C/LS) is given as 95 % inh. Further, at human α4β2 [2] (read-out: Human α4β2 Ki), the pKi is 5.59.
